According to publication PMC3597730, “Novel Phenolic Inhibitors of Small/Intermediate-Conductance Ca^2+-Activated K^+ Channels, KCa3.1 and KCa2.3” (PLoS ONE, 2013):
Like-named read-outs stand apart in the source and are kept apart here.

Columns and labels:
[1] = molecular target: T1, hKCa2.3 (Homo sapiens, UniProt Q9UGI6); test: Whole-cell patch-clamp of hKCa2.3 in COS7 cells; type: cell-based
T1 construct: expressed in transfected cells; host or cells: COS7

[2] = tested on: T2, hERG; test: Whole-cell patch-clamp of hERG tail currents in HEK293 cells; type: cell-based, human; settings: human, HEK293 cells expressing hERG, pH 7.4; hERG; compound 10 µM; read-out: % of control at 10 µM
T2 construct: expressed in transfected cells; gift of Craig January, University of Wisconsin

[3] = tested on: T3, hERG channels; test: as above; type: cell-based, human; settings: 13b 1 µM; caffeic acid, flufenamic acid 10 µM (Table S1)
T3 construct: expressed in transfected cells; gift of Craig January, University of Wisconsin

[4] = tested on: T4, KCa1.1; test: Whole-cell patch-clamp of KCa1.1 in U251 glioblastoma cells; type: cell-based, human
T4 construct: KCa1.1 in human U251 glioblastoma cells; endogenous in cells; host or cells: U251 glioblastoma cells

[5] = molecular target: T5, KCa3.1 channels in 3T3 fibroblasts (Mus musculus, UniProt O89109); test: Whole-cell patch-clamp of KCa3.1 currents in 3T3 fibroblasts; type: cell-based
T5 construct: KCa3.1 channels in 3T3 fibroblasts; endogenous in cells; host or cells: 3T3-L1 mouse embryonic fibroblasts

[6] = tested on: non-selective cation channels; settings: previously shown; no reference given; read-out: reported EC50, non-selective cation channels; cited from earlier work
[7] = molecular target: T6, hKv1.2 (Homo sapiens, UniProt P16389); test: Whole-cell patch-clamp of cloned hKv1.2; type: cell-based
T6 construct: expressed in transfected cells; host or cells: B82 murine fibroblasts (Methods)

[8] = tested on: mixed KCa3.1 and KCa2.3 currents in PCAEC; test: Whole-cell patch-clamp of KCa currents in porcine coronary artery endothelial cells; type: cell-based
[9] = tested on: calcium-activated chloride channels; settings: previously shown; no reference given; read-out: reported EC50, calcium-activated chloride channels; cited from earlier work

T1 sequence (Q9UGI6 whole entry): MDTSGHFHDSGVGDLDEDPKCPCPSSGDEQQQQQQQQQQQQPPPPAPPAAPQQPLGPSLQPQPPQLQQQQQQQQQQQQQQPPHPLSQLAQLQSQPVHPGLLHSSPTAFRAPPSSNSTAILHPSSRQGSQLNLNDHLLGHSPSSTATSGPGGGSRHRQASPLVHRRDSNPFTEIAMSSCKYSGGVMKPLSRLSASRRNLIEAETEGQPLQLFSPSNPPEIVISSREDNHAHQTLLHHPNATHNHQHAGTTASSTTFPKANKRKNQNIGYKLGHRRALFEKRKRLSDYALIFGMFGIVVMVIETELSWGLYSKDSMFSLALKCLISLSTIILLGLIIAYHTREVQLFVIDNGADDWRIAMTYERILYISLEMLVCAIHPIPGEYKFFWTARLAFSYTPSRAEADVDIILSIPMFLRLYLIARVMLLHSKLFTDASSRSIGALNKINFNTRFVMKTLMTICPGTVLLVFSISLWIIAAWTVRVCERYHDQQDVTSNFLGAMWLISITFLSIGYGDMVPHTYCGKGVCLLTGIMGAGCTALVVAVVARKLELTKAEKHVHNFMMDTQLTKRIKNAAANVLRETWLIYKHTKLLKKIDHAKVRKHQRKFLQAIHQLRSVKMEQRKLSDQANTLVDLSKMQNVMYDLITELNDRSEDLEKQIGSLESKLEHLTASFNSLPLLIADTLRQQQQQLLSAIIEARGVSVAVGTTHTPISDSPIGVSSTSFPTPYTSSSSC
T6 sequence (P16389 whole entry): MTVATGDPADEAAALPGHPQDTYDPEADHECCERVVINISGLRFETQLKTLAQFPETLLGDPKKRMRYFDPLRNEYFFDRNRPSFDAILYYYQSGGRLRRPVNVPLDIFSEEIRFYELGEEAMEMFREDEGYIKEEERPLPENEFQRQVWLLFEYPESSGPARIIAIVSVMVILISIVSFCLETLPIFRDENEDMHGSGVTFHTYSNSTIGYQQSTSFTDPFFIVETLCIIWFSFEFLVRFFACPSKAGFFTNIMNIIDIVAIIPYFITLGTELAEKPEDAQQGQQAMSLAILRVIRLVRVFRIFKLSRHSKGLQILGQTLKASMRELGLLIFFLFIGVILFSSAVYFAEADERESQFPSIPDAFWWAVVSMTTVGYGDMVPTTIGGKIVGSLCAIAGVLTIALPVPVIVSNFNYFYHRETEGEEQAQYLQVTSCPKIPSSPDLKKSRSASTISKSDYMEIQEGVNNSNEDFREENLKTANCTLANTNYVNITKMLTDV

O=C(O)c1ccccc1Nc1cccc(C(F)(F)F)c1 [Flufenamic Acid, 2-(3-(trifluoromethyl)phenylamino) benzoic acid, reference compound]
remaining activity at 10 µM ([1]; COS-7, hKCa2.3, compound 10 µM, mean ± SEM, n ≥ 3, read-out: % of control at 10 µM): 104 ± 5%
remaining activity at 50 µM ([1]; COS-7, hKCa2.3, compound 50 µM, mean ± SEM, n ≥ 3, read-out: % of control at 50 µM): 100 ± 2%
KCa2.3 blocking effect (in words) ([1]; micromolar concentrations): no blocking effects
activity at 10 µM [2]: 116 ± 15%
hERG effect (in words) [3]: slight potentiation
potentiation of KCa1.1 ([4]; 10 µM): 2.7 fold
% of control at 10 µM ([4]; hKCa1.1, compound 10 µM): 270 ± 106%
remaining activity at 1 µM ([5]; KCa3.1 whole-cell current, 3T3 fibroblasts, 1 µM free Ca2+ in pipette, compound 1 µM, mean ± SEM, n ≥3, read-out: % of control at 1 µM): 65 ± 4%
remaining activity at 10 µM ([5]; KCa3.1 whole-cell current, 3T3 fibroblasts, 1 µM free Ca2+ in pipette, compound 10 µM, mean ± SEM, n ≥3, read-out: % of control at 10 µM): 13 ± 5%
remaining activity at 50 µM ([5]; KCa3.1 whole-cell current, 3T3 fibroblasts, 1 µM free Ca2+ in pipette, compound 50 µM, mean ± SEM, n ≥3, read-out: % of control at 50 µM): 2.5 ± 0.3%
remaining activity at 10 µM ([5]; read-out: KCa3.1 current blocked, % of control): 6 ± 1%
KCa3.1 blocking effect (in words) ([5]; whole-cell, 3T3 fibroblasts, concentrations up to 50 µM as in Table 1): Complete inhibition
EC50 ([5]; whole-cell, 3T3 fibroblasts, read-out: EC50 of KCa3.1 inhibition): 1.6 µM
EC50 [6]: ~5 µM
hKv1.2 blocking effect (in words) ([7]; flufenamic acid and caffeic acid 10 and 50 µM, 13c 1 µM): did not block
remaining activity at 10 µM ([7]; hKv1.2, compound 10 µM, read-out: % of control at 10 µM): 106 ± 5%
remaining activity at 50 µM ([7]; hKv1.2, compound 50 µM, read-out: % of control at 50 µM): 100 ± 2%
mixed KCa3.1/KCa2.3 current, % of control ([8]; 10 µM, n = 2): 25±3%
mixed KCa3.1/KCa2.3 current, % of control ([8]; 50 µM, n = 1): 3%
EC50 [9]: ~30 µM
